The source of these data is patent publication EP3959200B1, “NEW TRIAZOLE AND TRIAZOLOTHIADIAZINE DERIVATIVES EXERTING CYTOTOXIC AND APOPTOTIC EFFECTS ON A549 CELLS THROUGH AKT INHIBITION” (Anadolu Universitesi, priority 2020, dated 2022).

Each structure is given as a SMILES string. In brackets after ≈: the same amount, converted by molar mass. A value given as a limit tells only on which side of the number the result lay.

Data set [1] has as its system A549 human lung adenocarcinoma cells. The data set is described as follows: MTT cytotoxicity assay. The data set is classed as cell-based. To be noted: for IC50: Homo sapiens, A549, MTT, 24 hours, read-out: IC50 values A549 cell line; for cytotoxic effects on A549 cell line: in the tested concentration range (0.12-500 µg/mL), result in words; for SI values: SI= IC50 for NIH/3T3 cell line / IC50 for A549 cell line. On the procedure:
(§1) In order to be used from this stock, the concentrations ranging from 0.12 to 500 µg/mL (with the highest DMSO ratio of 0.1%) were prepared.
A549 human lung adenocarcinoma cells (ATCC® CCL-185™) were grown in RPMI 1640 medium supplemented with 10% fetal bovine serum, 1% penicillin/streptomycin, in an incubator with carbon dioxide, in a culture medium at 37°C at 95% relative humidity.
(§2) MTT protocol was applied to determine cell viability. […] At the end of the incubation period, 20 µL of MTT dye (5 mg/mL) was added into each well, and the cells were incubated for an additional 4 hours at 37°C. After this process, MTT dye was removed from the cells, 200 µL of DMSO was added to each well and left to incubate for 10 minutes. Color change was detected at 540 nm in the ELx808-IU Bio-Tek plate reader. Inhibition% values were determined for each concentration of compounds. Inhibitory concentration 50 (IC50) values of the compounds were calculated by drawing a dose-response curve with their concentrations against these values. All experiments were carried out in triplicate. The results were given as mean±standard deviation. Inhibition% = 100−[(ODtest compound−ODblank/ODsolvent control−ODblank)×100] [formula]
Selective index (SI) values were determined using the following formula. SI […] IC50 for NIH/3T3 cell line/IC50 for A549 cell line [formula]

For the next data set, the system named is Akt. Put plainly: Akt activity assay (Akt colorimetric in cell ELISA). It is filed as cell-based, human. To be noted: 24 hours. On the procedure:
Briefly, the media was removed from the wells and 100 µL of 4% formaldehyde was added. The plate was incubated for 15 minutes in a fume hood. Formaldehyde was removed and the plate was washed twice with 1X […] solution (TBS) to 100 µL/well. 1X TBS was removed and 100 µL of 1X permeabilization buffer was added to each well and left at room temperature for 15 minutes. After removing the 1X permeabilization buffer, the wells were washed once with 100 µL of 1X TBS. 1X TBS was removed and 100 µL of the quenching solution was added to the wells and left at room temperature for 20 minutes. Then, this solution was removed. The plate was washed once with 1X TBS, 100 µL of blocking buffer was added to the wells and left at room temperature for 30 minutes. At the end of this period, the blocking buffer was removed and 50 µL of primary antibody was added to the wells. The plate was closed with a sealer and incubated overnight at 4°C. The primary antibody was removed and plate wells were washed three times with 100 µL of wash buffer. After removing the wash buffer, 100 µL of diluted horseradish peroxidase (HRP) conjugate was added to the wells. It was incubated for 30 minutes at room temperature. After removing this conjugate, 100 µL of 3,3',5,5'-tetramethylbenzidine (TMB) stop solution was added and absorbance was measured at 450 nm for 30 minutes. The experiment was carried out in triplicate. The values of the blank wells were subtracted from the values of the untreated control and treated cells. The Akt activity% was determined as the relative absorbance of treated versus untreated control cells.

Data set [2] concerns NIH/3T3 mouse embryonic fibroblast cells. Put plainly: MTT cytotoxicity assay. The data set is classed as cell-based. To be noted: for IC50: Mus musculus, NIH3T3, 24 hours, read-out: IC50 values NIH/3T3 cell line. The protocol: as §1
NIH/3T3 mouse embryonic fibroblast cells (ATCC® CRL-1658™) were grown in DMEM medium supplemented with 10% fetal bovine serum, 1% penicillin/streptomycin, in an incubator with carbon dioxide, in a culture medium at 37°C at 95% relative humidity.
as §2

For the next data set, the system named is A549 cells. Put plainly: FITC Annexin V/PI apoptosis detection by flow cytometry. The data set is classed as cell-based, human. The protocol: The cells incubated with the compounds were centrifuged at 400 × g for 5 minutes in labeled tubes and washed twice with 1xPBS. Then, the cells were suspended in 1×Annexin-V binding solution at 1×10^6 cells/mL and 100 µL of this cell solution was taken and transferred to tubes. The cells were treated with 5 µL Annexin V FITC and 5 µL of propidium iodide (PI) dyes. Then, the cells were kept at room temperature in the dark for 15 minutes to allow the dye to bind. 400 µL of 1×Annexin-V binding cell solution was transferred to flow cytometry tubes and the amount of early and late apoptotic cells was determined relative to the positive control using the BD FACSAria flow cytometer FACSDiva version 6.1.1 software.

Regarding `CCn1c(-c2nonc2N)nc2c(C#CC(C)(C)O)ncc(OC[C@H]3CCCNC3)c21` [GSK690693, reference compound], the IC50 in data set [1] turned out to be 6.15 ± 0.49 µg/mL (≈ 14.5 µM). Further, the Inhibition % in the data set with Akt (1.50 µg/mL) is reported as 34.46±1.47%; in the data set with Akt (3.075 µg/mL), 49.88±5.55%; in the data set on Akt (6.15 µg/mL) it was 100%. Moreover, in the data set on Akt, the “IC50 value (Akt inhibitory effects)” value turned out to be 2.93 ± 0.23 µg/mL (≈ 6.89 µM).
Consider `N#Cc1ccc(C2=Nn3c(CCc4cccnc4)nnc3SC2)cc1` [Compound 2f, G-(4-Cyanophenyl)-3-(2-(pyridine-3-yl)ethyl)-7H-[1,2,4]triazolo[3,4-b][1,3,4]thiadiazine], for which, in data set [1], the IC50 is over 500 µg/mL and the “cytotoxic effects on A549 cell line” value is recorded as “did not show cytotoxic effects”. In addition, in data set [2], the IC50 was over 500 µg/mL.
With `COc1ccc2nc(NC(=O)CSc3nnc(CCc4cccnc4)n3N)sc2c1` [Compound 3g, 2-((4-Amino-5-(2-(pyridine-3-yl)ethyl)-4H-1,2,4-triazole-3-yl)thio)-N-(6-methoxybenzothiazole-2-yl)acetamide], the IC50 in data set [1] came out at 0.48 ± 0.03 µg/mL (≈ 1.09 µM). Moreover, the IC50 in data set [2] was over 500 µg/mL. In the data set on A549 cells (at IC50 concentrations), the “Early apoptotic cells %” value is reported as 0.9%, the “Late apoptotic cells %” value came out at 5.5%, the Necrosis % was determined as 9.1% and the Viable cells% was 84.5%. The apoptosis induction result in the data set with A549 cells (flow cytometry, result in words) is “induce apoptosis”. This compound also registered an Inhibition % in the data set with Akt (1.95 µg/mL) of 26.42±4.59%. The Inhibition % with Akt (3.90 µg/mL) is 88.87±5.31%. Also, the “IC50 value (Akt inhibitory effects)” value in the data set on Akt worked out at 2.60 ± 0.10 µg/mL (≈ 5.89 µM).
Regarding `Cc1ccc(C2=Nn3c(CCc4cccnc4)nnc3SC2)cc1` [Compound 2h, 3-(2-(Pyridine-3-yl)ethyl)-6-(p-tolyl)-7H-[1,2,4]triazolo[3,4-b][1,3,4]thiadiazine], in data set [1], the IC50 is 41.3 ± 0.58 µg/mL (≈ 123 µM) and the SI values was over 12.10. In addition, the IC50 in data set [2] is over 500 µg/mL.
For `FC(F)(F)c1ccc(C2=Nn3c(CCc4cccnc4)nnc3SC2)cc1` [Compound 2g, 3-(2-(Pyridine-3-yl)ethyl)-6-(4-(trifluoromethyl)phenyl)-7H-[1,2,4]triazolo[3,4-b][1,3,4]thiadiazine], in data set [1], the IC50 is over 500 µg/mL and the “cytotoxic effects on A549 cell line” value is given as “did not show cytotoxic effects”. For the same compound, the IC50 in data set [2] was over 500 µg/mL.
As for `Brc1ccc(C2=Nn3c(CCc4cccnc4)nnc3SC2)cc1` [Compound 2e, G-(4-Bromophenyl)-3-(2-(pyridine-3-yl)ethyl)-7H-[1,2,4]triazolo[3,4-b][1,3,4]thiadiazine], the IC50 in data set [1] and in data set [2] was over 500 µg/mL throughout. The “cytotoxic effects on A549 cell line” value in data set [1] is listed as “did not show cytotoxic effects”.
In the case of `Nn1c(CCc2cccnc2)nnc1SCC(=O)Nc1nc2ccc(Br)cc2s1` [Compound 3e, 2-((4-Amino-5-(2-(pyridine-3-yl)ethyl)-4H-1,2,4-triazole-3-yl)thio)-N-(6-bromobenzothiazole-2-yl)acetamide], the IC50 is 362 ± 12.6 µg/mL (≈ 737 µM) in data set [1] and over 500 µg/mL in data set [2]. The same compound gave an SI values in data set [1] of over 1.38.
With `COc1ccc(C2=Nn3c(CCc4cccnc4)nnc3SC2)cc1` [Compound 2i, G-(4-Methoxyphenyl)-3-(2-(pyridine-3-yl)ethyl)-7H-[1,2,4]triazolo[3,4-b][1,3,4] thiadiazine], the values for the IC50 in data set [1] and in data set [2] were 13.7 ± 2.52 µg/mL (≈ 38.9 µM) and under 3.9 µg/mL, respectively. The “IC50 values NIH/3T3 cell line” value in data set [2] (24 hours) was under 3.90 µg/mL.
